Data published in PubChem BioAssay AID2060891 (Molecular Pharmacology Branch, DTP, NCI, 2025).

Test system: K98450-129-R-PDC complex spheroid growth, percent test/control
Experiment: Anticancer human tumor K98450-129-R-PDC patient-derived colon adenocarcinoma cell line growth inhibition [RAS]
Conditions: for IC50: curve of first compound; for viability, T/C: stronger effect = lower value
How it was run: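 Agents were tested in combination matrices in half-log decrements from a top concentration at or near clinical Cmax (10 microM if undetermined). Targets were multi-cell spheroids of tumour lines plus HUVEC and MSC stromal cells.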

[1] = second compound 0.000949 µM, first compound 0.000949 µM
[2] = second compound 0.000949 µM, first compound 0.003 µM
[3] = second compound 0.000949 µM, first compound 0.00949 µM
[4] = second compound 0.000949 µM, first compound 0.03 µM
[5] = second compound 0.000949 µM, first compound 0.0949 µM
[6] = second compound 0.000949 µM, first compound 0.3 µM
[7] = second compound 0.003 µM, first compound 0.000949 µM
[8] = second compound 0.003 µM, first compound 0.003 µM
[9] = second compound 0.003 µM, first compound 0.00949 µM
[10] = second compound 0.003 µM, first compound 0.03 µM
[11] = second compound 0.003 µM, first compound 0.0949 µM
[12] = second compound 0.003 µM, first compound 0.3 µM
[13] = second compound 0.00949 µM, first compound 0.000949 µM
[14] = second compound 0.00949 µM, first compound 0.003 µM
[15] = second compound 0.00949 µM, first compound 0.00949 µM
[16] = second compound 0.00949 µM, first compound 0.03 µM
[17] = second compound 0.00949 µM, first compound 0.0949 µM
[18] = second compound 0.00949 µM, first compound 0.3 µM
[19] = second compound 0.03 µM, first compound 0.000949 µM
[20] = second compound 0.03 µM, first compound 0.003 µM
[21] = second compound 0.03 µM, first compound 0.00949 µM
[22] = second compound 0.03 µM, first compound 0.03 µM
[23] = second compound 0.03 µM, first compound 0.0949 µM
[24] = second compound 0.03 µM, first compound 0.3 µM
[25] = second compound 0.0949 µM, first compound 0.000949 µM
[26] = second compound 0.0949 µM, first compound 0.003 µM
[27] = second compound 0.0949 µM, first compound 0.00949 µM
[28] = second compound 0.0949 µM, first compound 0.03 µM
[29] = second compound 0.0949 µM, first compound 0.0949 µM
[30] = second compound 0.0949 µM, first compound 0.3 µM
[31] = second compound 0.3 µM, first compound 0.000949 µM
[32] = second compound 0.3 µM, first compound 0.003 µM
[33] = second compound 0.3 µM, first compound 0.00949 µM
[34] = second compound 0.3 µM, first compound 0.03 µM
[35] = second compound 0.3 µM, first compound 0.0949 µM
[36] = second compound 0.3 µM, first compound 0.3 µM
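Also: spheroids exposed to agents for seven days before the viability readout.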
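For viability, T/C in this document: luminescence used as a proxy for viable cell amount.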

Molecule `C=CC(=O)N1CCN(c2nc(OCC3CCCN3C)nc3c(F)c(-c4nc(N)cc(C)c4C(F)(F)F)c(Cl)cc23)C(C)C1` (stereo unspecified) + CCn1c(-c2cccnc2C(C)OC)c2c3cc(ccc31)N1CCOC(CC(NC(=O)C(C(C)C)N(C)C(=O)C3(F)CCN(C(=O)C#CC(C)(C)N(C)C)CC3)C(=O)N3CCCC(N3)C(=O)OCC(C)(C)C2)C1 has an IC50 (second compound 0.000949 µM) of 179 nM, an IC50 (second compound 0.003 µM) of 112 nM and an IC50 (second compound 0.00949 µM) of 3.58 nM. It also gave an IC50 (second compound 0.03 µM) of under 3.16 nM, an IC50 (second compound 0.0949 µM) of under 3.16 nM and an IC50 (second compound 0.3 µM) of under 3.16 nM. For the same molecule, the viability, T/C (second compound 0.000949 µM, first compound 0.00316 µM) was 81.6%, the viability, T/C (second compound 0.000949 µM, first compound 0.01 µM) was 69.9% and the viability, T/C (second compound 0.000949 µM, first compound 0.0316 µM) was 63.1%. For the same molecule, the viability, T/C (second compound 0.000949 µM, first compound 0.1 µM) was 55.4%, the viability, T/C (second compound 0.000949 µM, first compound 0.316 µM) was 46.6% and the viability, T/C (second compound 0.000949 µM, first compound 1 µM) was 36%. The viability, T/C (second compound 0.003 µM, first compound 0.00316 µM) was 69.4%, the viability, T/C (second compound 0.003 µM, first compound 0.01 µM) was 54% and the viability, T/C (second compound 0.003 µM, first compound 0.0316 µM) was 52.8%. It also gave a viability, T/C (second compound 0.003 µM, first compound 0.1 µM) of 56.2%, a viability, T/C (second compound 0.003 µM, first compound 0.316 µM) of 45.9% and a viability, T/C (second compound 0.003 µM, first compound 1 µM) of 35.2%. It also gave a viability, T/C (second compound 0.00949 µM, first compound 0.00316 µM) of 52.8%, a viability, T/C (second compound 0.00949 µM, first compound 0.01 µM) of 46.8% and a viability, T/C (second compound 0.00949 µM, first compound 0.0316 µM) of 43.8%. It also gave a viability, T/C (second compound 0.00949 µM, first compound 0.1 µM) of 44.9%, a viability, T/C (second compound 0.00949 µM, first compound 0.316 µM) of 39.9% and a viability, T/C (second compound 0.00949 µM, first compound 1 µM) of 41.9%. For the same molecule, the viability, T/C (second compound 0.03 µM, first compound 0.00316 µM) was 39.4%, the viability, T/C (second compound 0.03 µM, first compound 0.01 µM) was 37.1% and the viability, T/C (second compound 0.03 µM, first compound 0.0316 µM) was 40.4%. The viability, T/C (second compound 0.03 µM, first compound 0.1 µM) was 40.7%, the viability, T/C (second compound 0.03 µM, first compound 0.316 µM) was 43.2% and the viability, T/C (second compound 0.03 µM, first compound 1 µM) was 39.9%. It also gave a viability, T/C (second compound 0.0949 µM, first compound 0.00316 µM) of 36.6%, a viability, T/C (second compound 0.0949 µM, first compound 0.01 µM) of 34.3% and a viability, T/C (second compound 0.0949 µM, first compound 0.0316 µM) of 42.1%. The viability, T/C (second compound 0.0949 µM, first compound 0.1 µM) was 37.2%, the viability, T/C (second compound 0.0949 µM, first compound 0.316 µM) was 43.5% and the viability, T/C (second compound 0.0949 µM, first compound 1 µM) was 33.7%. It also gave a viability, T/C (second compound 0.3 µM, first compound 0.00316 µM) of 29.8%, a viability, T/C (second compound 0.3 µM, first compound 0.01 µM) of 35.3% and a viability, T/C (second compound 0.3 µM, first compound 0.0316 µM) of 42.9%. The viability, T/C (second compound 0.3 µM, first compound 0.1 µM) was 29%, the viability, T/C (second compound 0.3 µM, first compound 0.316 µM) was 36.1% and the viability, T/C (second compound 0.3 µM, first compound 1 µM) was 38%.

In the case of `CC1(C)CCC(Nc2ncc(C(F)(F)F)c(-c3c[nH]c4c(P(C)(C)=O)c(C#N)ccc34)n2)CN1` (stereo unspecified) + CCn1c(-c2cccnc2C(C)OC)c2c3cc(ccc31)N1CCOC(CC(NC(=O)C(C(C)C)N(C)C(=O)C3(F)CCN(C(=O)C#CC(C)(C)N(C)C)CC3)C(=O)N3CCCC(N3)C(=O)OCC(C)(C)C2)C1, the IC50 (second compound 0.000949 µM) is reported as over 300 nM, the IC50 (second compound 0.003 µM) is reported as over 300 nM and the IC50 (second compound 0.00949 µM) is reported as over 300 nM. It also gave an IC50 (second compound 0.03 µM) of under 0.949 nM, an IC50 (second compound 0.0949 µM) of under 0.949 nM and an IC50 (second compound 0.3 µM) of under 0.949 nM. It also gave a viability, T/C [1] of 88.2%, a viability, T/C [2] of 72.2% and a viability, T/C [3] of 83.1%. The viability, T/C [4] was 79.9%, the viability, T/C [5] was 80.8% and the viability, T/C [6] was 53.8%. For the same molecule, the viability, T/C [7] was 72.4%, the viability, T/C [8] was 52.9% and the viability, T/C [9] was 64.5%. For the same molecule, the viability, T/C [10] was 67.7%, the viability, T/C [11] was 61.1% and the viability, T/C [12] was 50.4%. The viability, T/C [13] was 52.5%, the viability, T/C [14] was 45.5% and the viability, T/C [15] was 52.7%. For the same molecule, the viability, T/C [16] was 53.4%, the viability, T/C [17] was 51.8% and the viability, T/C [18] was 49.6%. The viability, T/C [19] was 45%, the viability, T/C [20] was 42.9% and the viability, T/C [21] was 43.2%. It also gave a viability, T/C [22] of 45.1%, a viability, T/C [23] of 48.2% and a viability, T/C [24] of 43.5%. The viability, T/C [25] was 39.2%, the viability, T/C [26] was 41.1% and the viability, T/C [27] was 44.7%. It also gave a viability, T/C [28] of 41.8%, a viability, T/C [29] of 50.3% and a viability, T/C [30] of 43.1%. For the same molecule, the viability, T/C [31] was 34.3%, the viability, T/C [32] was 40.7% and the viability, T/C [33] was 43.1%. It also gave a viability, T/C [34] of 36.2%, a viability, T/C [35] of 46.9% and a viability, T/C [36] of 42%.

Molecule `CCc1c2c(nc3ccc(O)cc13)-c1cc3c(c(=O)n1C2)COC(=O)[C@]3(O)CC` + CCn1c(-c2cccnc2C(C)OC)c2c3cc(ccc31)N1CCOC(CC(NC(=O)C(C(C)C)N(C)C(=O)C3(F)CCN(C(=O)C#CC(C)(C)N(C)C)CC3)C(=O)N3CCCC(N3)C(=O)OCC(C)(C)C2)C1 has an IC50 (second compound 0.000949 µM) of 16.9 nM, an IC50 (second compound 0.003 µM) of 2.54 nM and an IC50 (second compound 0.00949 µM) of under 0.949 nM. The IC50 (second compound 0.03 µM) was under 0.949 nM, the IC50 (second compound 0.0949 µM) was under 0.949 nM and the IC50 (second compound 0.3 µM) was under 0.949 nM. The viability, T/C [1] was 71.1%, the viability, T/C [2] was 64.6% and the viability, T/C [3] was 60.9%. For the same molecule, the viability, T/C [4] was 39.8%, the viability, T/C [5] was 30.2% and the viability, T/C [6] was 25.4%. It also gave a viability, T/C [7] of 58.1%, a viability, T/C [8] of 48.9% and a viability, T/C [9] of 38.9%. For the same molecule, the viability, T/C [10] was 30.9%, the viability, T/C [11] was 24.3% and the viability, T/C [12] was 15.8%. It also gave a viability, T/C [13] of 44.3%, a viability, T/C [14] of 36.2% and a viability, T/C [15] of 32.8%. For the same molecule, the viability, T/C [16] was 22.7%, the viability, T/C [17] was 16.9% and the viability, T/C [18] was 14%. It also gave a viability, T/C [19] of 32.8%, a viability, T/C [20] of 40.1% and a viability, T/C [21] of 25.6%. It also gave a viability, T/C [22] of 24.7%, a viability, T/C [23] of 19.5% and a viability, T/C [24] of 11.6%. The viability, T/C [25] was 35.1%, the viability, T/C [26] was 33.8% and the viability, T/C [27] was 27.9%. The viability, T/C [28] was 22.3%, the viability, T/C [29] was 20% and the viability, T/C [30] was 11.5%. The viability, T/C [31] was 36%, the viability, T/C [32] was 32.7% and the viability, T/C [33] was 28.5%. The viability, T/C [34] was 18.3%, the viability, T/C [35] was 15.4% and the viability, T/C [36] was 10.7%.
